Assay results taken from patent publication US11324706B2, “Composition for inhibiting growth of breast cancer stem cells containing phenylacetaldehyde” (JEJU NATIONAL UNIVERSITY INDUSTRY-ACADEMIC COOPERATION …, priority 2016, dated 2022).

Assays:
[1] = system: MDA-MB-231 cells; assay: Annexin V/PI staining analysis (FACS); assay type: cell-based, human; conditions: MDA-MB-231, PAA 0.2 mM, 24 hours
Description: (§1) (FIGS. 1D, E and F) show effects of PAA on apoptosis of breast cancer cells. MDA-MB-231 cells were treated with PAA for 24 hours, and apoptotic cells were analyzed by FACS using an Annexin V-PI staining kit. Caspase 3/7 activity in MDA-MB-231 cells was analyzed using a Caspase-Gloss 3/7 kit. By fluorescent staining, apoptotic cells were analyzed and nuclei thereof were stained with Hoechst 33258 in breast cancers (magnified, 200×) (FIG. 1);
[…] In accordance with the manufacturer's instructions, the cancer cells were double-stained with PI and FITC-Annexin V. The sample was analyzed by flow cytometry (Accuri C6, BD, San Diego, Calif., USA).

[2] = system: Caspase 3/7 activity in MDA-MB-231 cells; assay: Caspase-3/7 analysis (Caspase-Glo 3/7 kit); assay type: cell-based, human; conditions: MDA-MB-231, 24 hours
Description: as §1
Cancer cells were treated with different concentrations of PAA for 24 hours. Caspase-3/7 activity was analyzed in accordance with the manufacturer's instructions regarding a Caspase-Glo 3/7 kit (Promega, Wis., USA). 100 μl of a Caspase-Glo 3/7 reagent was added to a 96-well for culturing cancer cells. The plate was covered with a plate sealer and cultured at room temperature for one hour, and Caspase-3/7 activity was measured using a plate-reading luminometer, GloMax® Explorer (Promega, Wis., USA).

[3] = system: MDA-MB-231 cells; assay: Analysis of apoptosis by fluorescent staining (Hoechst 33258); assay type: cell-based, human; conditions: MDA-MB-231, Hoechst 33258 staining
Description: as §1
MDA-MB-231 cells were treated with 200 μm of PAA for 24 hours and were cultured in a Hoechst 33258 solution (10 mg/mL) at 37° C. for 30 minutes.

[4] = molecular target: T1, Stat3 / biotin-labelled Stat probe (Homo sapiens, UniProt P40763); assay: Electrophoretic mobility shift assay (EMSA) with Stat3 probe; assay type: cell-based; conditions: PAA-treated mammosphere nuclear extracts
T1 construct: EMSA (electrophoretic mobility-shift assay) of PAA-treated MDA-MB-231 cell-derived mammosphere nuclear lysates; endogenous in cells; host or cells: MDA-MB-231 cell-derived mammospheres (nuclear lysate)
T1 sequence (P40763 2-770 limits assumed): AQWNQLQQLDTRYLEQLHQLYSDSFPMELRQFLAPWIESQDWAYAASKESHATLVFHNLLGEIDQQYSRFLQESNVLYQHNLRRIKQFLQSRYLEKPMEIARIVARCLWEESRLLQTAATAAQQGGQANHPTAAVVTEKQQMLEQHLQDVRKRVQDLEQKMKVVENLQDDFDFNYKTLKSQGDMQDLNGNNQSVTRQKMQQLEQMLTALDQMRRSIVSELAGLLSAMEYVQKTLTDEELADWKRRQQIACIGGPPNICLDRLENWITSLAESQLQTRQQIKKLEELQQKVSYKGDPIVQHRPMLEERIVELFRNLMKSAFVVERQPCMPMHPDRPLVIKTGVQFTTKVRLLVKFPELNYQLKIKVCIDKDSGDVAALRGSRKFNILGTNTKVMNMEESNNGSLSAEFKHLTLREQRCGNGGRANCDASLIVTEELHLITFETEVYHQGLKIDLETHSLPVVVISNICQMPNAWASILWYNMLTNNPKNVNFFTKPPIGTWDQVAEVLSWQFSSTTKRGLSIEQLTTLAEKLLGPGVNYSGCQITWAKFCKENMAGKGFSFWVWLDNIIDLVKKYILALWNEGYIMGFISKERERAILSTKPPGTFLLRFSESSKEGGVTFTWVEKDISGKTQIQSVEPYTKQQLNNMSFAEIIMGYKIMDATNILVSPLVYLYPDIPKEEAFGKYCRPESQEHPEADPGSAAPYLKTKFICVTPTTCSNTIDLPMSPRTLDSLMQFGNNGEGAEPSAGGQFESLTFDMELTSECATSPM
Description: Nuclear lysates were cultured in biotin-labeled Stat3 probes and were isolated by 6% PAGE;
Lane 1: probe alone; Lane 2: probe+nuclear extracts; Lane 3: probe+PAA-treated nuclear extracts; Lane 4: self-competition; Lane 5: nuclear extracts cultured together with mutant STAT3 probe. The PAA reduced DNA/STAT3 interactions in mammosphere nuclear lysates;
In accordance with the manufacturer's instructions, EMSAs were detected using a chemiluminescent EMSA kit (Thermoscientific, IL, USA) commercially available from Lightshift. Biotin-top and bottom probe parts (5′-[…]-Biotin3′, SEQ NO. 11 and 5′-[…]-Biotin3′, SEQ NO. 12) of Stat3 probe were annealed and the double-stranded oligonucleotide was end-labelled with biotin.
Biotin-labelled DNA probes were cultured together with PAA-treated nuclear proteins in a total volume of 20 μl of EMSA buffer containing 1 μg/μl poly[dI-dC]) for 20 minutes at room temperature. The reaction mixture was subjected to electrophoresis on 4% polyacrylamide nondenaturing gel at 4° C. in the presence of 0.5×TBE (45 mM Tris borate and 1 mM EDTA) and visualized using a chemiluminescence nucleic acid detection kit (Thermoscientific, IL, USA).
In addition, bonding between PAA-treated nuclear extracts and Stat3 DNAs was analyzed using a biotin-labelled Stat-conjugated probe that bonds to STAT3 at a high affinity. […]

[5] = system: Nanog, Sox2, Oct4 and CD44 genes; assay: Real-time PCR of CSC markers in mammospheres; assay type: cell-based, human; conditions: β-actin internal control
Description: In accordance with the manufacturer's instructions, the level of transcriptome was measured with one step SYBR PrimeScript RT-PCR kit (Takara, Tokyo, Japan) using SYBR green as a double-stranded DNA-specific dye. One-step RT-PCR reaction was conducted in the final volume of 20 μl per reaction containing 1 μg of total RNA, 10 μl of 2× one step SYBR RT-PCR buffer IV, 1 μl of PrimeScript 1 step enzyme mix II, and 10 μM of PCR forward primers and PCR reverse primers for CD44, NANOG, OCT4, SOX2, and β-actin. The forward and reverse primers are as follow: […]
Relative expression amounts of mRNAs of target genes were calculated using a comparative CT method. At least three independent PCR procedures were conducted in accordance with statistical analysis. PCR products were normalized with β-actin genes, as an internal control.

Compound: O=CCc1ccccc1 [PAA, phenylacetaldehyde]
- number of breast cancer cells (Annexin V+) killed [1]: increased
- activity of caspase 3/7 [2]: concentration-dependently induced
- formation of apoptotic bodies [3]: apoptotic bodies were formed
- bonding between biotin-labelled Stat probe and Stat3 [4]: inhibited
- expression of self-renewal genes such as Nanog, Sox2, Oct4, and CD44 [5]: reduced
